Test results: EP4786487A1, “PEPTIDE” (Peptidream Inc, priority 2023, dated 2025)
Starred links: 1 amine or outer side, 2 acyl side, 3 side chain; linkers in the order of their positions; H or OH if unused. Positions of bridges follow the written chain, without caps; N, C: chain ends. Non-standard residues stand in square brackets, D forms with d. Residues, ends and D or L forms follow the SMILES beside them. Phe(3-OCH2COOH) = N[C@@H](Cc1cccc(OCC(=O)O)c1)C(=O)O; Phe(4-COOH) = N[C@@H](Cc1ccc(C(=O)O)cc1)C(=O)O; Bip = N[C@@H](Cc1ccc(-c2ccccc2)cc1)C(=O)O; Gly(N(CH2)3COOH) = O=C(O)CCCNCC(=O)O; X1 = CCCCCCC[C@H](N[*:1])C(=O)[*:2]; NMeF = CN[C@@H](Cc1ccccc1)C(=O)O; NMeA = CN[C@@H](C)C(=O)O; Sar = CNCC(=O)O

Experiments:
Type in all cases: cell-based
Myostatin [1] = assay: Reporter gene assay for myostatin signaling in HepG2 cell line, Evaluation Procedure (1), myostatin inhibition; details: Method A; GDF-11 IC50 versus Myostatin IC50
Procedure, shortened: (§1)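 IC50 derived from One-Glo luciferase luminescence after 20–24 h at 37 °C. Peptides titrated 4-fold at 0.006–100 nmol/L against myostatin or 0.12–2000 nmol/L against GDF-11 in HepG2 cells carrying a transfected CAGA12-luciferase reporter, kept in 0.1% BSA EMEM.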

Myostatin [2] = target: T1, Myostatin (Homo sapiens, UniProt O14793); assay: as above; details: Method A: Myostatin 10 ng/mL; read-out: IC50 (Luciferase) Myostatin HepG2
T1 construct: active myostatin (also called mature myostatin) is a homodimer consisting of two C-terminal growth factor domains; purchased R&D systems 788-G8/CF
T1 sequence (O14793 267-375): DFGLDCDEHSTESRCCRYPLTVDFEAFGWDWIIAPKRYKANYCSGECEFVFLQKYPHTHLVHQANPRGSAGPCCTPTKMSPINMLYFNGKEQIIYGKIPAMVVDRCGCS
Procedure, shortened: as §1

GDF-11 = target: T2, GDF-11 (Homo sapiens, UniProt O95390); assay: Reporter gene assay for myostatin signaling in HepG2 cell line, Evaluation Procedure (1), GDF-11 inhibition; details: Method A: GDF-11 10 ng/mL; read-out: IC50 (Luciferase) GDF-11 HepG2
T2 construct: purchased R&D systems 1958-GD-G8/CF
T2 sequence (O95390 299-407): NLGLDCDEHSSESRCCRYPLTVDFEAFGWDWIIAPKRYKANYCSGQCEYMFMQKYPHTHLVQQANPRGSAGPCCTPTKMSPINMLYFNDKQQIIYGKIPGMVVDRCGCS
Procedure, shortened: as §1

Compound | IC50 (Myostatin [2]) [nM] | IC50 (GDF-11) [nM] | Selectivity (Myostatin [1])
CC[C@H](C)[C@@H]1NC(=O)[C@H](Cc2ccccc2)N(C)C(=O)[C@H](Cc2ccc(O)cc2)NC(=O)[C@H](Cc2ccc(-c3ccccc3)cc2)NC(=O)[C@H](C)NC(=O)CN(CCCC(=O)O)C(=O)CSC[C@H](C(=O)O)NC(=O)[C@H](Cc2ccccc2)N(C)C(=O)[C@H](C)N(C)C(=O)[C@H](CC(C)C)NC(=O)[C@H](Cc2ccccc2)N(C)C(=O)[C@H](CCCNC(=N)N)NC(=O)[C@H](Cc2ccc(C(=O)O)cc2)NC(=O)[C@H](Cc2cccc(OCC(=O)O)c2)NC(=O)CN(C)C1=O [Myostatin_99_v184] ({CH2CO}-[Gly(N(CH2)3COOH)]A[Bip]Y[NMeF]I[Sar][Phe(3-OCH2COOH)][Phe(4-COOH)]R[NMeF]L[NMeA][NMeF][dC]-OH; thioether N-15) | 14.2 | 1830 | 129
CC[C@H](C)[C@@H]1NC(=O)[C@H](Cc2ccccc2)N(C)C(=O)[C@H](Cc2ccc(O)cc2)NC(=O)[C@H](Cc2ccc(-c3ccccc3)cc2)NC(=O)[C@H](CO)NC(=O)CN(CCCC(=O)O)C(=O)CSC[C@H](C(=O)O)NC(=O)[C@H](Cc2ccccc2)N(C)C(=O)[C@H](C)N(C)C(=O)[C@H](CC(C)C)NC(=O)[C@H](Cc2ccccc2)N(C)C(=O)[C@H](CCCNC(=N)N)NC(=O)[C@H](Cc2ccc(C(=O)O)cc2)NC(=O)[C@H](Cc2ccc(O)cc2)NC(=O)CN(C)C1=O [Myostatin_99_v186] ({CH2CO}-[Gly(N(CH2)3COOH)]S[Bip]Y[NMeF]I[Sar]Y[Phe(4-COOH)]R[NMeF]L[NMeA][NMeF][dC]-OH; thioether N-15) | 43.2 | 935 | 22
CC[C@H](C)[C@@H]1NC(=O)[C@H](Cc2ccccc2)N(C)C(=O)[C@H](Cc2ccc(O)cc2)NC(=O)[C@H](Cc2ccc(-c3ccccc3)cc2)NC(=O)[C@H](C)NC(=O)[C@H](C)NC(=O)CSC[C@H](C(=O)O)NC(=O)[C@H](Cc2ccccc2)N(C)C(=O)[C@H](C)N(C)C(=O)[C@H](CC(C)C)NC(=O)[C@H](Cc2ccccc2)N(C)C(=O)[C@H](CCCNC(=N)N)NC(=O)[C@H](Cc2ccc(C(=O)O)cc2)NC(=O)[C@H](Cc2ccc(O)cc2)NC(=O)CN(C)C1=O [Myostatin_99_v189] ({CH2CO}-AA[Bip]Y[NMeF]I[Sar]Y[Phe(4-COOH)]R[NMeF]L[NMeA][NMeF][dC]-OH; thioether N-15) | 6.9 | 234 | 34
CC[C@H](C)[C@@H]1NC(=O)[C@H](Cc2ccccc2)N(C)C(=O)[C@H](Cc2ccc(O)cc2)NC(=O)[C@H](Cc2c[nH]c3ccccc23)NC(=O)[C@H](C)NC(=O)[C@H](C)NC(=O)CSC[C@H](C(=O)O)NC(=O)[C@H](Cc2ccccc2)N(C)C(=O)[C@H](C)N(C)C(=O)[C@H](CC(C)C)NC(=O)[C@H](Cc2ccccc2)N(C)C(=O)[C@H](CCCNC(=N)N)NC(=O)[C@H](Cc2ccc(C(=O)O)cc2)NC(=O)[C@H](Cc2ccc(O)cc2)NC(=O)[C@H](C)N(C)C1=O [Myostatin_99_v191] ({CH2CO}-AAWY[NMeF]I[NMeA]Y[Phe(4-COOH)]R[NMeF]L[NMeA][NMeF][dC]-OH; thioether N-15) | 8.1 | 283 | 35
CC[C@H](C)[C@@H]1NC(=O)[C@H](Cc2ccccc2)N(C)C(=O)[C@H](Cc2ccc(O)cc2)NC(=O)[C@H](Cc2c[nH]c3ccccc23)NC(=O)[C@H](C)NC(=O)[C@H](C)NC(=O)CSC[C@H](C(=O)O)NC(=O)[C@H](Cc2ccccc2)N(C)C(=O)[C@H](C)N(C)C(=O)[C@H](CC(C)C)NC(=O)[C@H](Cc2ccccc2)N(C)C(=O)[C@H](CCCNC(=N)N)NC(=O)[C@H](Cc2ccc(C(=O)O)cc2)NC(=O)[C@H](Cc2cccc(OCC(=O)O)c2)NC(=O)CN(C)C1=O [Myostatin_99_v192] ({CH2CO}-AAWY[NMeF]I[Sar][Phe(3-OCH2COOH)][Phe(4-COOH)]R[NMeF]L[NMeA][NMeF][dC]-OH; thioether N-15) | 12.1 | 2060 | 170
CCCCCCC[C@@H]1NC(=O)[C@H](Cc2ccccc2)N(C)C(=O)[C@H](CCCNC(=N)N)NC(=O)[C@H](Cc2ccc(C(=O)O)cc2)NC(=O)[C@H](Cc2ccc(O)cc2)NC(=O)CN(C)C(=O)[C@H]([C@@H](C)CC)NC(=O)[C@H](Cc2ccccc2)N(C)C(=O)[C@H](Cc2ccc(O)cc2)NC(=O)[C@H](Cc2c[nH]c3ccccc23)NC(=O)[C@H](C)NC(=O)[C@H](C)NC(=O)CSC[C@H](C(=O)O)NC(=O)[C@H](Cc2ccccc2)N(C)C(=O)[C@H](C)N(C)C1=O [Myostatin_99_v193] ({CH2CO}-AAWY[NMeF]I[Sar]Y[Phe(4-COOH)]R[NMeF][X1][NMeA][NMeF][dC]-OH; thioether N-15) | 1 | 57 | 57

More lines, main results first:

IC50 (Myostatin [2]) [nM] | IC50 (GDF-11) [nM] | Compound | Selectivity (Myostatin [1])
4.5 | 194 | CCCCCCC[C@@H]1NC(=O)[C@H](Cc2ccccc2)N(C)C(=O)[C@H](CCCNC(=N)N)NC(=O)[C@H](Cc2ccc(C(=O)O)cc2)NC(=O)[C@H](Cc2ccc(O)cc2)NC(=O)[C@H](C)N(C)C(=O)[C@H]([C@@H](C)CC)NC(=O)[C@H](Cc2ccccc2)N(C)C(=O)[C@H](Cc2ccc(O)cc2)NC(=O)[C@H](Cc2c[nH]c3ccccc23)NC(=O)[C@H](C)NC(=O)CN(CCCC(=O)O)C(=O)CSC[C@H](C(=O)O)NC(=O)[C@H](Cc2ccccc2)N(C)C(=O)[C@H](C)N(C)C1=O [Myostatin_99_v181] ({CH2CO}-[Gly(N(CH2)3COOH)]AWY[NMeF]I[NMeA]Y[Phe(4-COOH)]R[NMeF][X1][NMeA][NMeF][dC]-OH; thioether N-15) | 43
53 | 1360 | CC[C@H](C)[C@@H]1NC(=O)[C@H](Cc2ccccc2)N(C)C(=O)[C@H](Cc2ccc(O)cc2)NC(=O)[C@H](Cc2ccc(-c3ccccc3)cc2)NC(=O)[C@H](C)NC(=O)CN(CCCC(=O)O)C(=O)CSC[C@H](C(=O)O)NC(=O)[C@H](Cc2ccccc2)N(C)C(=O)[C@H](C)N(C)C(=O)[C@H](CC(C)C)NC(=O)[C@H](Cc2ccccc2)N(C)C(=O)[C@H](CCCNC(=N)N)NC(=O)[C@H](Cc2ccc(C(=O)O)cc2)NC(=O)[C@H](Cc2ccc(O)cc2)NC(=O)[C@H](C)N(C)C1=O [Myostatin_99_v182] ({CH2CO}-[Gly(N(CH2)3COOH)]A[Bip]Y[NMeF]I[NMeA]Y[Phe(4-COOH)]R[NMeF]L[NMeA][NMeF][dC]-OH; thioether N-15) | 26
55.4 | 911 | CC[C@H](C)[C@@H]1NC(=O)[C@H](Cc2ccccc2)N(C)C(=O)[C@H](Cc2ccc(O)cc2)NC(=O)[C@H](Cc2c[nH]c3ccccc23)NC(=O)[C@H](CO)NC(=O)CN(CCCC(=O)O)C(=O)CSC[C@H](C(=O)O)NC(=O)[C@H](Cc2ccccc2)N(C)C(=O)[C@H](C)N(C)C(=O)[C@H](CC(C)C)NC(=O)[C@H](Cc2ccccc2)N(C)C(=O)[C@H](CCCNC(=N)N)NC(=O)[C@H](Cc2ccc(C(=O)O)cc2)NC(=O)[C@H](Cc2ccc(O)cc2)NC(=O)[C@H](C)N(C)C1=O [Myostatin_99_v188] ({CH2CO}-[Gly(N(CH2)3COOH)]SWY[NMeF]I[NMeA]Y[Phe(4-COOH)]R[NMeF]L[NMeA][NMeF][dC]-OH; thioether N-15) | 16
